From publication PMC4704819, “Honey Bee Allatostatins Target Galanin/Somatostatin-Like Receptors and Modulate Learning: A Conserved Function?” (PLoS ONE, 2016)
Where a SMILES comes first, the peptide text is derived from it. Bridges are numbered along the chain shown (N, C = ends).

Molecular target: T1, Apime-ASTA-R (Apis mellifera, UniProt A0A7M7ILT1)
T1 sequence (A0A7M7ILT1 1-361): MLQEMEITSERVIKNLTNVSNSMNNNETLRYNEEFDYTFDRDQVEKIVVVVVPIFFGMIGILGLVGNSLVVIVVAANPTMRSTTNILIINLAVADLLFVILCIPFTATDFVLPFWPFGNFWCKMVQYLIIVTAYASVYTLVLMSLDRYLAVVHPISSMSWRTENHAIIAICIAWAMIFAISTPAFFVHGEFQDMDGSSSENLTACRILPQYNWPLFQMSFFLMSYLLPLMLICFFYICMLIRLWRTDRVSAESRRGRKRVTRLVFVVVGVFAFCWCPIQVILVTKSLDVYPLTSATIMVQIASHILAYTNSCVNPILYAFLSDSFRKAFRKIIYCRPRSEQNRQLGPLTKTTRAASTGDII
Test: Intracellular calcium measurement, HEK293 cells expressing Apime-ASTA-R with Gαqi9 chimeric G protein
Assay type: cell-based
Conditions: HEK293 with Gαqi9, Fig 4D
Protocol: This vector contains an ATG initiation codon in phase with a mammalian signal peptide sequence of metabotropic glutamate receptor 5 to address receptor protein to the cell membrane, with a hemagglutinin sequence (TAG HA), and MluI and HindIII restriction sites used for cloning. The coding regions of the genes of interest were PCR amplified from cDNA template. After extraction from whole brains, 1 μg of total RNA was reverse-transcribed with random primers. […] PCR reactions included: 30s at 98°C, then 30 cycles of 10s at 98°C, 30s at 60°C, 1 min at 72°C and finally, 5 minutes at 72°C. Cloning required several amplification and digestion steps to insert the full cDNA sequences in the vector.
In all cases, 2 μg of plasmid DNA encoding the Gαqi9 chimeric G protein was included to enable artificial coupling of the receptors to phospholipase C. Electroporation (250 V, 800 μF, Biorad GenePulser X-cell) was performed in a total volume of 300 μl of electroporation buffer (50 mM K2HPO4, 20 mM CH3COOK, 20 mM KOH, 26.5 mM MgSO4, pH 7.4). After electroporation, cells were resuspended in 10 ml of culture medium and split (100 μl/well) into polyornithine-coated (Sigma #P3655), black-walled, clear bottom 96-well plates (Greiner bio-one #655090) and grown for a further 48 h prior to analyzing receptor properties. All products used for cell culture were purchased from Invitrogen Life Technologies.
Cells were washed with freshly prepared 20 mM Hepes, 1 mM MgSO4, 3.3 mM Na2CO3, 1.3 mM CaCl2, 0.1% BSA, 2.5 mM probenecid in 1X Hank's balanced salt solution (Gibco #14185), pH7.4 buffer and loaded with 1 μM Ca^2+-sensitive fluorescent dye Fluo-4 AM (Invitrogen # F14202) for 1 h at 37°C. Cells were washed once and incubated with 50 μl of buffer. A plate was prepared with the various concentrations of peptides to be tested, and 50 μl of 2X concentrated-drug solution was added in each well after 20 s of recording. Fluorescence signals (excitation 485 nm, emission 525 nm) were measured by using the fluorescence microplate reader Flexstation (Molecular Devices) at sampling intervals of 1.5 s for 60 s. All represented data correspond to means ± standard deviation (SD) from experiments performed in triplicate.
This method allows detecting ligand-induced activation of the receptor by measuring the release of intracellular calcium.

Row | Compound | receptor activation (calcium), in words
1 | CC(C)[C@@H]1NC(=O)[C@H](C)NC(=O)[C@H](CC(N)=O)NC(=O)[C@H](Cc2ccccc2)NC(=O)[C@H](Cc2ccc(O)cc2)NC(=O)[C@@H](NC(=O)[C@H](CCCNC(=N)N)NC(=O)[C@H](Cc2c[nH]c3ccccc23)NC(=O)[C@H](Cc2ccc(O)cc2)NC(=O)[C@@H](NC(=O)[C@H](CCCNC(=N)N)NC(=O)CNC(=O)[C@H](CCCCN)NC(=O)[C@H](C)NC(=O)[C@H](CCC(N)=O)NC(=O)CN)C(C)C)CSSC[C@@H](C(=O)N[C@@H](Cc2ccccc2)C(=O)O)NC(=O)[C@H]([C@@H](C)O)NC1=O [Apime-ASTCC] (H-GQAKGRVYWRCYFNAVTCF-OH; disulfide 11-18; N-terminus assumed) | not activated by either ASTC or ASTCC
2 | CC(C)[C@@H]1NC(=O)[C@H](C)NC(=O)[C@H](CC(N)=O)NC(=O)[C@H](Cc2ccccc2)NC(=O)[C@H](C)NC(=O)[C@@H](NC(=O)[C@H](CCC(N)=O)NC(=O)[C@H](CCCCN)NC(=O)[C@H](Cc2c[nH]c3ccccc23)NC(=O)[C@H](Cc2ccc(O)cc2)NC(=O)[C@@H](N)CO)CSSC[C@@H](C(=O)N[C@@H](Cc2ccccc2)C(N)=O)NC(=O)[C@H](CO)NC1=O [Apime-ASTC] (H-SYWKQCAFNAVSCF-NH2; disulfide 6-13; N-terminus assumed) | not activated by either ASTC or ASTCC
